Where only a bound is given, the exact number is not on record here.

Chain of Bcl-2 protein (P10415 whole entry): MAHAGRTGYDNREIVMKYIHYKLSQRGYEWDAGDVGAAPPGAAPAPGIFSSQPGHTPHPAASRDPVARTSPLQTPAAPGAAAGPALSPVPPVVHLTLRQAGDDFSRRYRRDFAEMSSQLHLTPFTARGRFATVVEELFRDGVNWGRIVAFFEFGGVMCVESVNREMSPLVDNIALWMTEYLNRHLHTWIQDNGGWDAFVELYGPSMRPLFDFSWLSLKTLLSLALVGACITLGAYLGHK

This experiment concerns the target Bcl-2 protein (Homo sapiens (Human), UniProt P10415). The experiment can be described thus: Bcl-2 binding TR-FRET (Time-Resolved Fluorescence-Resonance-Energy-Transfer) assay. The conditions noted are these: inhibition constant for binding to Bcl-2 protein. An excerpt: The smaller the Ki value, the greater is the binding affinity.
For orientation: Time-resolved FRET reads energy transfer from a long-lived donor to a nearby acceptor.
One may read the Ki as a dissociation constant, usually derived from enzyme kinetics or from competition with a known ligand. Higher therefore signals a looser hold on the target. The compound `CC1(C)CCC(CN2CCN(c3ccc(C(=O)NS(=O)(=O)c4ccc(NCC5CCN(C6COC6)CC5)c([N+](=O)[O-])c4)c(Oc4cnc5[nH]ccc5c4)c3)CC2)=C(c2ccc(Cl)cc2)C1` [Compound 163, 4-(4-{[2-(4-chlorophenyl)-4,4-dimethylcyclohex-1-en-1-yl]methyl}piperazin-1-yl)-N-[(3-nitro-4-{[(1-oxetan-3-ylpiperidin-4-yl)methyl]amino}phenyl)sulfonyl]-2-(1H-pyrrolo[2,3-b]pyridin-5-yloxy)benzamide] had a Ki below 0.01 nM.

With `CC1(C)CCC(CN2CCN(c3ccc(C(=O)NS(=O)(=O)c4ccc(NCC5CCN(C6CC6)CC5)c([N+](=O)[O-])c4)c(Oc4cnc5[nH]ccc5c4)c3)CC2)=C(c2ccc(Cl)cc2)C1` [Compound 164, 4-(4-{[2-(4-chlorophenyl)-4,4-dimethylcyclohex-1-en-1-yl]methyl}piperazin-1-yl)-N-[(4-{[(1-cyclopropylpiperidin-4-yl)methyl]amino}-3-nitrophenyl)sulfonyl]-2-(1H-pyrrolo[2,3-b]pyridin-5-yloxy)benzamide], the Ki is below 0.01 nM.

For `CC1(C)CCC(CN2CCN(c3ccc(C(=O)NS(=O)(=O)c4ccc(NCC5CN(CCF)CCO5)c([N+](=O)[O-])c4)c(Oc4cnc5[nH]ccc5c4)c3)CC2)=C(c2ccc(Cl)cc2)C1` (stereo not drawn) [Compound 165, 4-(4-{[2-(4-chlorophenyl)-4,4-dimethylcyclohex-1-en-1-yl]methyl}piperazin-1-yl)-N-{[4-({[4-(2-fluoroethyl)morpholin-2-yl]methyl}amino)-3-nitrophenyl]sulfonyl}-2-(1H-pyrrolo[2,3-b]pyridin-5-yloxy)benzamide], the Ki was below 0.01 nM.

Turning to `CC1(C)CCC(CN2CCN(c3ccc(C(=O)NS(=O)(=O)c4ccc(NCC5CN(CC(F)F)CCO5)c([N+](=O)[O-])c4)c(Oc4cnc5[nH]ccc5c4)c3)CC2)=C(c2ccc(Cl)cc2)C1` (stereo not drawn) [Compound 166, 4-(4-{[2-(4-chlorophenyl)-4,4-dimethylcyclohex-1-en-1-yl]methyl}piperazin-1-yl)-N-{[4-({[4-(2,2-difluoroethyl)morpholin-2-yl]methyl}amino)-3-nitrophenyl]sulfonyl}-2-(1H-pyrrolo[2,3-b]pyridin-5-yloxy)benzamide], the Ki was below 0.01 nM.

In turn, `CC1(C)CCC(CN2CCN(c3ccc(C(=O)NS(=O)(=O)c4ccc(OCC5(F)CCN(C6COC6)CC5)c([N+](=O)[O-])c4)c(Oc4cnc5[nH]ccc5c4)c3)CC2)=C(c2ccc(Cl)cc2)C1` [Compound 167, 4-(4-{[2-(4-chlorophenyl)-4,4-dimethylcyclohex-1-en-1-yl]methyl}piperazin-1-yl)-N-({4-[(4-fluoro-1-oxetan-3-ylpiperidin-4-yl)methoxy]-3-nitrophenyl}sulfonyl)-2-(1H-pyrrolo[2,3-b]pyridin-5-yloxy)benzamide] registered a Ki below 0.01 nM.

`CC1(C)CCC(CN2CCN(c3ccc(C(=O)NS(=O)(=O)c4ccc(OC[C@@H]5CC(F)(F)CN5C5COC5)c([N+](=O)[O-])c4)c(Oc4cnc5[nH]ccc5c4)c3)CC2)=C(c2ccc(Cl)cc2)C1` [Compound 168, 4-(4-{[2-(4-chlorophenyl)-4,4-dimethylcyclohex-1-en-1-yl]methyl}piperazin-1-yl)-N-[(4-{[(2S)-4,4-difluoro-1-oxetan-3-ylpyrrolidin-2-yl]methoxy}-3-nitrophenyl)sulfonyl]-2-(1H-pyrrolo[2,3-b]pyridin-5-yloxy)benzamide] had an inhibition constant (Ki) below 0.01 nM.

Regarding `CC1(C)CCC(CN2CCN(c3ccc(C(=O)NS(=O)(=O)c4ccc(NCC5COCCN5C5CCOC5)c([N+](=O)[O-])c4)c(Oc4cnc5[nH]ccc5c4)c3)CC2)=C(c2ccc(Cl)cc2)C1` (stereo not drawn) [Compound 171, 4-(4-{[2-(4-chlorophenyl)-4,4-dimethylcyclohex-1-en-1-yl]methyl}piperazin-1-yl)-N-[(3-nitro-4-{[(4-tetrahydrofuran-3-ylmorpholin-3-yl)methyl]amino}phenyl)sulfonyl]-2-(1H-pyrrolo[2,3-b]pyridin-5-yloxy)benzamide], the inhibition constant (Ki) was below 0.01 nM.

For the compound `CC1(C)CCC(CN2CCN(c3ccc(C(=O)NS(=O)(=O)c4ccc(NCC5CCN(C(CF)CF)CC5)c([N+](=O)[O-])c4)c(Oc4cnc5[nH]ccc5c4)c3)CC2)=C(c2ccc(Cl)cc2)C1` [Compound 172, 4-(4-{[2-(4-chlorophenyl)-4,4-dimethylcyclohex-1-en-1-yl]methyl}piperazin-1-yl)-N-({4-[({1-[2-fluoro-1-(fluoromethyl)ethyl]piperidin-4-yl}methyl)amino]-3-nitrophenyl}sulfonyl)-2-(1H-pyrrolo[2,3-b]pyridin-5-yloxy)benzamide], the inhibitory constant (Ki) was below 0.01 nM.

The compound `CC1(C)CCC(CN2CCN(c3ccc(C(=O)NS(=O)(=O)c4ccc(OCC5(F)CCN(C6CC6)CC5)c([N+](=O)[O-])c4)c(Oc4cnc5[nH]ccc5c4)c3)CC2)=C(c2ccc(Cl)cc2)C1` [Compound 173, 4-(4-{[2-(4-chlorophenyl)-4,4-dimethylcyclohex-1-en-1-yl]methyl}piperazin-1-yl)-N-({4-[(1-cyclopropyl-4-fluoropiperidin-4-yl)methoxy]-3-nitrophenyl}sulfonyl)-2-(1H-pyrrolo[2,3-b]pyridin-5-yloxy)benzamide] yielded a Ki below 0.01 nM.

For the compound `COc1ccc(CNc2ccc(S(=O)(=O)NC(=O)c3ccc(N4CCN(CC5=C(c6ccc(Cl)cc6)CC(C)(C)CC5)CC4)cc3Oc3cnc4[nH]ccc4c3)cc2[N+](=O)[O-])cc1` [Compound 174, 4-(4-{[2-(4-chlorophenyl)-4,4-dimethylcyclohex-1-en-1-yl]methyl}piperazin-1-yl)-N-({4-[(4-methoxybenzyl)amino]-3-nitrophenyl}sulfonyl)-2-(1H-pyrrolo[2,3-b]pyridin-5-yloxy)benzamide], the Ki is below 0.01 nM.

As for `CC1(C)CCC(CN2CCN(c3ccc(C(=O)NS(=O)(=O)c4ccc(N[C@@H]5CCN(CC(F)F)C5)c([N+](=O)[O-])c4)c(Oc4cnc5[nH]ccc5c4)c3)CC2)=C(c2ccc(Cl)cc2)C1` [Compound 180, 4-(4-{[2-(4-chlorophenyl)-4,4-dimethylcyclohex-1-en-1-yl]methyl}piperazin-1-yl)-N-[(4-{[(3R)-1-(2,2-difluoroethyl)pyrrolidin-3-yl]amino}-3-nitrophenyl)sulfonyl]-2-(1H-pyrrolo[2,3-b]pyridin-5-yloxy)benzamide], the Ki was below 0.01 nM.

For the compound `CC1(C)CCC(CN2CCN(c3ccc(C(=O)NS(=O)(=O)c4ccc(N[C@H]5CCN(CC(F)F)C5)c([N+](=O)[O-])c4)c(Oc4cnc5[nH]ccc5c4)c3)CC2)=C(c2ccc(Cl)cc2)C1` [Compound 182, 4-(4-{[2-(4-chlorophenyl)-4,4-dimethylcyclohex-1-en-1-yl]methyl}piperazin-1-yl)-N-[(4-{[(3S)-1-(2,2-difluoroethyl)pyrrolidin-3-yl]amino}-3-nitrophenyl)sulfonyll]-2-(1H-pyrrolo[2,3-b]pyridin-5-yloxy)benzamide], the Ki was 0.068 nM.

The compound `CC1(C)CCC(CN2CCN(c3ccc(C(=O)NS(=O)(=O)c4ccc(N[C@@H]5CCN(CCF)C5)c([N+](=O)[O-])c4)c(Oc4cnc5[nH]ccc5c4)c3)CC2)=C(c2ccc(Cl)cc2)C1` [Compound 183, 4-(4-{[2-(4-chlorophenyl)-4,4-dimethylcyclohex-1-en-1-yl]methyl}piperazin-1-yl)-N-[(4-{[(3R)-1-(2-fluoroethyl)pyrrolidin-3-yl]amino}-3-nitrophenyl)sulfonyl]-2-(1H-pyrrolo[2,b]pyridin-5-yloxy)benzamide] returned a Ki below 0.01 nM.

For the compound `CC1(C)CCC(CN2CCN(c3ccc(C(=O)NS(=O)(=O)c4ccc(OC[C@H]5CCN(C6COC6)C5)c([N+](=O)[O-])c4)c(Oc4cnc5[nH]ccc5c4)c3)CC2)=C(c2ccc(Cl)cc2)C1` [Compound 184, 4-(4-{[2-(4-chlorophenyl)-4,4-dimethylcyclohex-1-en-1-yl]methyl}piperazin-1-yl)-N-[(3-nitro-4-{[(3S)-1-oxetan-3-ylpyrrolidin-3-yl]methoxy}phenyl)sulfonyl]-2-(1H-pyrrolo[2,3-b]pyridin-5-yloxy)benzamide], the Ki is below 0.01 nM.

Regarding `CC1(C)CCC(CN2CCN(c3ccc(C(=O)NS(=O)(=O)c4ccc(OCC5CCN(C6COC6)CC5)c([N+](=O)[O-])c4)c(Oc4cnc5[nH]ccc5c4)c3)CC2)=C(c2ccc(Cl)cc2)C1` [Compound 191, 4-(4-{[2-(4-chlorophenyl)-4,4-dimethylcyclohex-1-en-1-yl]methyl}piperazin-1-yl)-N-({3-nitro-4-[(1-oxetan-3-ylpiperidin-4-yl)methoxy]phenyl}sulfonyl)-2-(1H-pyrrolo[2,3-b]pyridin-5-yloxy)benzamide], the inhibitory constant (Ki) is below 0.01 nM.

In turn, `CC1(C)CCC(CN2CCN(c3ccc(C(=O)NS(=O)(=O)c4ccc(OCC5(F)CCN(C6CCOCC6)CC5)c([N+](=O)[O-])c4)c(Oc4cnc5[nH]ccc5c4)c3)CC2)=C(c2ccc(Cl)cc2)C1` [Compound 192, 4-(4-{[2-(4-chlorophenyl)-4,4-dimethylcyclohex-1-en-1-yl]methyl}piperazin-1-yl)-N-({4-[(4-fluoro-1-tetrahydro-2H-pyran-4-ylpiperidin-4-yl)methoxy]-3-nitrophenyl}sulfonyl)-2-(1H-pyrrolo[2,3-b]pyridin-5-yloxy)benzamide] yielded an inhibitory constant (Ki) below 0.01 nM.

On to `CC1(C)CCC(CN2CCN(c3ccc(C(=O)NS(=O)(=O)c4ccc(OCC5(F)CCN(C6CCOC6)CC5)c([N+](=O)[O-])c4)c(Oc4cnc5[nH]ccc5c4)c3)CC2)=C(c2ccc(Cl)cc2)C1` (stereo not drawn) [Compound 193, 4-(4-{[2-(4-chlorophenyl)-4,4-dimethylcyclohex-1-en-1-yl]methyl}piperazin-1-yl)-N-({4-[(4-fluoro-1-tetrahydrofuran-3-ylpiperidin-4-yl)methoxy]-3-nitrophenyl}sulfonyl)-2-(1H-pyrrolo[2,3-b]pyridin-5-yloxy)benzamide], for which the Ki is below 0.01 nM.

`CC1(C)CCC(CN2CCN(c3ccc(C(=O)NS(=O)(=O)c4ccc(OCC5(F)CCN(S(C)(=O)=O)CC5)c([N+](=O)[O-])c4)c(Oc4cnc5[nH]ccc5c4)c3)CC2)=C(c2ccc(Cl)cc2)C1` [Compound 194, 4-(4-{[2-(4-chlorophenyl)-4,4-dimethylcyclohex-1-en-1-yl]methyl}piperazin-1-yl)-N-[(4-{[4-fluoro-1-(methylsulfonyl)piperidin-4-yl]methoxy}-3-nitrophenyl)sulfonyl]-2-(1H-pyrrolo[2,3-b]pyridin-5-yloxy)benzamide] registered a Ki below 0.01 nM.
